Assay results as given in patent US20250146074A1 (The General Hospital Corporation, priority 2023, published 2025).
Each block holds one compound with its values, some of them ahead of it.

Legend:
[1] = test system: Firmicutes CAG:176 thiolase (FcTHL, UniRef90 ID R6CZ24); assay: In vitro mass spectrometry end-point assay for 5-ASA acetylation; format: biochemical, Firmicutes bacterium CAG:176; conditions: 6 hr at 37° C., 1 mM of each substrate, 50 μM enzyme
Text: (§1) Having identified thiolase and acyl-CoA N-acetyltransferase superfamilies with potential 5-ASA-inactivating capabilities, we sought to biochemically confirm these predicted activities in vitro. […] We expressed the known NAT from Salmonella enterica, the candidate thiolase from Firmicutes CAG:176 (UniRef90 ID R6CZ24), and the acyl-CoA N-acetyltransferase from F. prausnitzii (UniRef90 ID C7H1G6) for further biochemical characterization (FIG. 14a). […] The known S. enterica enzyme served as a positive control (FIG. 14b).
(§2) Identities of the constructs were confirmed with DNA sequencing and then were transformed into E. coli BL21 strains for expression according to the standardized protocols from GenScript. All E. coli expression constructs were grown anaerobically in sealed Hungate tubes in Terrific Broth (VWR) supplemented with 5 mM MgSO4 and kanamycin (50 μg/mL) and were incubated at 37° C. overnight before dilution at 1:100 into fresh media the following morning. […]
(§3) The samples were injected into an Infinity Lab Poroshell120 Hilic column (2.1×100 mm 2.7 μm) at 25° C. […] For absolute quantification, all samples were normalized to the taurine internal standard and concentrations calculated against a standard curve.

[2] = test system: F. prausnitzii acyl-CoA N-acetyltransferase (FpGNAT, UniRef90 ID C7H1G6); assay: as above; format: biochemical, Faecalibacterium prausnitzii; conditions: 6 hr at 37° C., 1 mM of each substrate, 50 μM enzyme
Text: as §1, §2, §3

[3] = test system: Firmicutes CAG:176 thiolase (FcTHL); assay: Kinetic assay of 5-ASA acetylation; format: biochemical, Firmicutes bacterium CAG:176; conditions: 5-ASA varied, 1 mM acetyl-CoA, 5 μM enzyme, 37° C.
Protocol: The samples were injected into an Infinity Lab Poroshell120 Hilic column (2.1×100 mm 2.7 μm) at 25° C. […] This was followed by a 3 second gradient to 40% mobile phase B. This was then followed by a 27 second gradient returning to 5% mobile phase A at a flow rate of 1200 μL/min. This flow rate and ratio was held for an additional 48 seconds. Additional column equilibration was carried out on a secondary pump for 117 seconds at 5% mobile phase A and a flow rate of 1000 μL/min. MS was conducted in negative ion mode using electrospray ionization. […] Other MS settings were as follows: heater temp 300° C., ESI nebulizer 45 psi, spray voltage 3.5 kV, acquisition time 100 ms/spectrum. […] For absolute quantification, all samples were normalized to the taurine internal standard and concentrations calculated against a standard curve.

fecal metabolome = assay: Fecal metabolome pre- and post-5-ASA in new users (IBDMDB); format: in vivo, human; conditions: stool pre- vs post-5-ASA
Protocol: A portion of each selected stool sample (40-100 mg) and the entire volume of originating ethanol preservative were stored in 15-ml centrifuge tubes at −80° C. until all samples were collected. Samples were then thawed on ice and centrifuged (4° C., 5,000 g) for 5 min. Ethanol was evaporated using a gentle stream of nitrogen gas using a nitrogen evaporator (TurboVap LV; Biotage) and stored at −80° C. until all samples in the study had been dried. After a homogenization and vortexing process, the mixture was aliquoted and stored at −80° C. until LC-MS analyses.
A combination of four untargeted LC-MS methods were used to profile metabolites in the fecal homogenates, as previously published;^22 two methods that measure polar metabolites (a method that measures metabolites of intermediate polarity (for example, fatty acids and bile acids), and a lipid profiling method: 1) HILIC-pos (positive ion mode MS analyses of polar metabolites), 2) HILIC-neg (negative ion mode MS analysis of polar metabolites), 3) C18-neg (negative ion mode analysis of metabolites of intermediate polarity; for example, bile acids and free fatty acids), and 4) C8-pos. Lipids (polar and nonpolar). Additionally, pairs of pooled reference samples were inserted into the queue at intervals of approximately 20 samples for quality control and data standardization. […]
Raw LC-MS data were acquired to the data acquisition computer interfaced to each LC-MS system and then stored on a robust and redundant file storage system (Isilon Systems) accessed via the internal network at the Broad Institute. […] Identification of nontargeted metabolite LC-MS peaks was conducted by: i) matching measured retention times and masses to mixtures of reference metabolites analyzed in each batch; and ii) matching an internal database of >600 compounds that have been characterized using the Broad Institute methods. Temporal drift was monitored and normalized with the intensities of features measured in the pooled reference samples. […]

[4] = in vivo; cited from earlier work
[5] = human, in vivo; cited from earlier work
colonic epithelial cells = conditions: cited from earlier work
[6] = in vivo; cited from earlier work; remark: listed apart in the source
[7] = test system: Firmicutes CAG:176 thiolase (FcTHL); assay: Promiscuity (substrate competition) assay of the thiolase with amine-containing xenobiotics; conditions: 1 mM substrate, 5 μM enzyme, room temperature 1 hour
Protocol: Enzyme concentrations were calculated according to Beer's Law with extinction coefficients calculated by Benchling software based on the amino acid sequences of the putative enzymes. […] Reactions were conducted at 37° C. for 6 hours for the initial endpoint assay and room temperature for 1 hour for the promiscuity assay. Quenching/extraction for the promiscuity assay was with equal volumes of acetonitrile and methanol. Quenching/extraction for the end-point was one part sample and nine-parts extraction mix (75% acetonitrile:25% methanol v/v with 10 μM 1,2-^13C2-taurine from Cambridge Isotopes as an internal standard for quantification). Samples were vortexed and cooled to −20° C. and then centrifuged prior to LC-MS analysis.
For the promiscuity assays, mass spectrometry analyses were conducted using an LC-MS system composed of an Agilent 1260 Infinity HPLC (Agilent Technologies) coupled to a 6530 Accurate-Mass QTOF LC-MS (Agilent Technologies). The samples were injected into a 150×3 mm Hypersil GOLD aQ column (Thermo Scientific) at 30° C. […] Remaining identities were inferred using calculated masses with a mass detection tolerance of 10 ppm. Raw data from the LC-MS were analyzed using Agilent MassHunter Qualitative Analysis 10.0 software.

Structure (SMILES): Nc1ccc(O)c(C(=O)O)c1 [5-ASA, 5-aminosalicylic acid]
conversion of 5-ASA to N-acetyl 5-ASA using acetyl-CoA [1]: > 25%
conversion of 5-ASA to N-acetyl 5-ASA using acetyl-CoA [2]: > 25%
Km ([3]; +/−0.46 mM): 1880 µM
kcat ([3]; +/−0.0199): 0.00108 s⁻¹
abundance of fecal 2-aminoadipate following 5-ASA treatment (fecal metabolome; 13 new users): reduced
abundance of fecal nicotinic acid (NA) with 5-ASA (fecal metabolome): dropped
abundance of fecal nicotinuric acid (NUA) with 5-ASA (fecal metabolome): dramatically increased
intraluminal stool concentrations of 5-ASA (median) [4]: 30 mM
IBD patients who fail to respond or eventually lose response [5]: over half

Structure (SMILES): CC(=O)Nc1ccc(O)c(C(=O)O)c1 [N-acetyl 5-ASA]
bioavailability to colonic epithelial cells (colonic epithelial cells): < 5%
anti-inflammatory activity in placebo-controlled trials [6]: lacks anti-inflammatory activity

acetylation of the compound by the thiolase [7]: did not observe any acetylation
Structure (SMILES): NNc1nncc2ccccc12 [hydralazine]

acetylation of the compound by the thiolase [7]: did not observe any acetylation
Structure (SMILES): CCN(CC)CCNC(=O)c1ccc(N)cc1 [procainamide]
